Source: patent US20100112173A1, “ADDITIVE TO LOW-ALCOHOL OR SOFT DRINKS AND METHODS OF CONDITIONING DRINKS” (priority 2007, published 2010)

Columns and labels:
[1] = Hazard (toxicity) class assignment
[2] = Bioavailability / metabolism of the selenium compound
[3] = Comparative toxicometry, DL 50 ks
[4] = Comparative toxicometry, DL 50 m
[5] = Comparative toxicometry, Lim sub ch (30 days); format: in vivo
[6] = Comparative toxicometry, K sim coefficient; format: in vivo
[7] = cited from earlier work
[8] = cited from earlier work; remark: listed apart in the source

SMILES | hazard class according to Zaugolnikov Table [1] | metabolism (bioavailability) [2] | DL 50 ks [3] | DL 50 m [4] | Lim sub ch (30 days) [5] [mg/kg] | K sim (Limetal) ([6]; Limetal) | K sim (according to Yu. S. Kogan) [6] | Maximum allowable concentrations [7] | ADI (human) ([7]; human) [µg/kg] | class of hazard subject to GOST 12.1.007-76 [8] | MAC (human) ([7]; human) [mg/m^3]
Cc1n[nH]c(C)c1[Se]c1c(C)n[nH]c1C [DMDPS (Selekor-S), Di-(3,4)-methyldipyrazolylselenide] | fourth hazard class | 85-95% | 6,000-8,100 mg/kg | 4,800-6,000 mg/kg | 400 to 800 | (>6) | (5) | 8,100 μg/kg | >20 |  | 
O=[Se]([O-])[O-].[Na+].[Na+] [Na2SeO3, sodium selenite, reference compound] |  |  | 7 to 14 mg/kg | 6 mg/kg |  |  | (1.6) |  | 0.7 | 1 (first) class of hazard | 0.1
O=[Se](=O)(O)O [sodium selenate] |  |  |  |  |  |  |  |  |  | 1 (first) class of hazard | 
